Test results taken from ChEMBL document CHEMBL1201862, “PubChem BioAssay data set” (2004).
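Compound exposure: 48 hours, 5 concentrations, 96-well plates. Here, GI50 denotes the concentration required for 50% inhibition of growth.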 The source made the active and inactive calls. Cut-off read from the data, not from the text of the source: active = GI50 up to about 1.1 µM and inactive = higher.

Tests used:
Test in all cases: NCI-60 cell line screen, 48 h
M19-MEL = system: M19-MEL
SNB-78 = system: SNB-78
KM-20L2 = system: KM-20L2
MDA-MB-231 = system: MDA-MB-231
T47D = system: T47D
MDA-MB-435 = system: MDA-MB-435
XF498 = system: XF498
DMS-273 = system: DMS-273
RXF 631 = system: RXF 631

Compound | GI50 (M19-MEL) | GI50 (SNB-78) | GI50 (KM-20L2) | GI50 (MDA-MB-231) | GI50 (T47D) | GI50 (MDA-MB-435) | GI50 (XF498) | GI50 (DMS-273) | GI50 (RXF 631)
CCCCP1(=O)C=CC(Cl)=C(C)C1 (stereo not drawn) | > 100 µM (inactive) | > 100 µM (inactive) | > 100 µM (inactive) |  |  |  |  |  | 
CC1(C)CCC(C)(C)c2c1ccc(O)c2Cc1c(O)ccc2c1C(C)(C)CCC2(C)C |  |  |  | 1.66 µM (inactive) | 1.87 µM (inactive) | 1.87 µM (inactive) |  |  | 
c1ccc(COC2(OCc3ccccc3)CC3OC2C2NN=NC32)cc1 (stereo not drawn) | 17.7 µM (inactive) | 28.7 µM (inactive) | 54.6 µM (inactive) |  |  |  | 19.3 µM (inactive) | 21.2 µM (inactive) | 
CC(=O)NNc1nc(C)c(C(=O)NNC(=O)C(=O)Nc2cccc(C(C)=O)c2)s1 | 19.9 µM (inactive) | 75.3 µM (inactive) | 59 µM (inactive) |  |  |  | 16.4 µM (inactive) | 34.8 µM (inactive) | 26.6 µM (inactive)
Cn1ccnc1C(O)(c1nccn1C)c1nccn1C | > 100 µM (inactive) | > 100 µM (inactive) |  |  |  |  | > 100 µM (inactive) |  | 
CC(NCCS(=O)(=O)O)C(=O)O (stereo not drawn) | > 100 µM (inactive) | 99.8 µM (inactive) | > 100 µM (inactive) |  |  |  | > 100 µM (inactive) | > 100 µM (inactive) | 
O=C(O)CNS(=O)(=O)c1ccc(NC(=O)Nc2ccccc2)cc1 | > 38 µM (inactive) | > 100 µM (inactive) | > 100 µM (inactive) |  |  |  | > 100 µM (inactive) | > 100 µM (inactive) | 
O=C1NCN(c2ccccc2)C12CCN(CCCN1CCN(CCOC(c3ccc(F)cc3)c3ccc(F)cc3)CC1)CC2 |  |  |  | 2.15 µM (inactive) | 1.58 µM (inactive) | 1.76 µM (inactive) |  |  | 
Clc1nc(Cl)nc(Nc2cccc3ccccc23)n1 |  |  |  | > 10 µM (inactive) | > 10 µM (inactive) | > 10 µM (inactive) |  |  | 
COC(=O)C1CC=C(SC(=O)c2ccccc2)N1C(=O)c1ccccc1 (stereo not drawn) |  |  |  | > 100 µM (inactive) | > 100 µM (inactive) | > 100 µM (inactive) |  |  | 
COC(=O)C1CCC(=O)N1C(=O)Cc1ccc(OC)cc1 (stereo not drawn) | > 100 µM (inactive) | > 100 µM (inactive) | > 100 µM (inactive) |  |  |  | > 100 µM (inactive) | > 100 µM (inactive) | 
C=CS(=O)(=O)c1c2cc(OC)ccc2nc2ccc(OC)cc12 |  |  |  | 15.5 µM (inactive) | 3.43 µM (inactive) | 5.58 µM (inactive) |  |  | 
COC(=O)c1c(O)ccc2c1c1c(n2Cc2cccc(C)c2)C(=O)c2ccccc2C1=O |  |  |  | 16.1 µM (inactive) | 1.94 µM (inactive) | 9.82 µM (inactive) |  |  | 
Cc1cc(S(=O)(=O)NC2=NCCCN2)c(S)cc1Cl |  |  |  | 72.9 µM (inactive) | 25.2 µM (inactive) | 18.3 µM (inactive) |  |  | 
O=C1NCN(c2ccccc2)C12CCN(CCCSc1ccc(F)cc1)CC2 |  |  |  | 5.52 µM (inactive) | 28.6 µM (inactive) | 12.8 µM (inactive) |  |  | 
Nc1ccc(C(=O)NN2C(=O)[C@H](Cl)C2c2ccc(Cl)cc2)cc1 (stereo partly drawn) |  |  |  | 1.81 µM (inactive) | 1.85 µM (inactive) | 1.84 µM (inactive) |  |  | 
COc1cc(C2c3cc4c(cc3OC3(O)COC(=O)C23)OCO4)cc(OC)c1OC (stereo not drawn) | 56.6 µM (inactive) | > 100 µM (inactive) | 24.3 µM (inactive) |  |  |  | 35.7 µM (inactive) | 36.5 µM (inactive) | 49.3 µM (inactive)
O=C1CCCCC[C@]12SC[C@H]1CON=C12 |  |  |  |  |  | 16.7 µM (inactive) |  |  | 
CC1[C@@H](OCc2ccccc2)COC(=O)N1Cc1ccccc1 (stereo partly drawn) |  |  |  | > 100 µM (inactive) |  | > 100 µM (inactive) |  |  | 
CO/C=C1\OC(=O)C=C1OC | > 100 µM (inactive) | > 100 µM (inactive) |  |  |  |  | > 100 µM (inactive) | > 100 µM (inactive) | 
COc1ccc2nc(NC(=O)C(=O)C(C(=O)c3ccccc3-c3ccccc3)C3OC(=O)c4ccccc43)sc2c1 (stereo not drawn) | 15.1 µM (inactive) | 35 µM (inactive) | 25.1 µM (inactive) |  |  |  | 21.5 µM (inactive) |  | 26.6 µM (inactive)

Compound | GI50 (M19-MEL) | GI50 (SNB-78) | GI50 (KM-20L2) | GI50 (MDA-MB-231) | GI50 (T47D) | GI50 (MDA-MB-435) | GI50 (XF498) | GI50 (DMS-273) | GI50 (RXF 631)
CC1=CC(=O)NP(=O)(C23CC4CC(CC(C4)C2)C3)N1 (stereo not drawn) | > 100 µM (inactive) | > 100 µM (inactive) | > 100 µM (inactive) |  |  |  | > 100 µM (inactive) | > 100 µM (inactive) | > 100 µM (inactive)
COc1ccc(C(=O)Cc2ccc(Cl)cc2)cc1OC | > 100 µM (inactive) | > 100 µM (inactive) | > 100 µM (inactive) |  |  |  | > 100 µM (inactive) | > 100 µM (inactive) | > 100 µM (inactive)
CN(C)CCNC(=O)c1cccc2[nH]c(-c3ccc(Cl)cc3)nc12 | 6.98 µM (inactive) | 15.9 µM (inactive) | 5.14 µM (inactive) |  |  |  | 4.49 µM (inactive) | 4.03 µM (inactive) | 
O=C1C2=C(C3=NCCc4c[nH]c1c43)c1c(Br)cc(Br)cc1CCN2 | 0.661 µM (active) | 5.55 µM (inactive) | 2.75 µM (inactive) |  |  |  | 10.7 µM (inactive) | 3.12 µM (inactive) | 
C=CCOC1=C(OCC=C)C(C2COC(C)(C)O2)OC1=O (stereo not drawn) |  |  |  | > 100 µM (inactive) | > 100 µM (inactive) | > 100 µM (inactive) |  |  | 
CC(C)C1NC(=O)CC(c2ccccc2)N(N=O)C1c1ccccc1 (stereo not drawn) | > 100 µM (inactive) | > 100 µM (inactive) | > 100 µM (inactive) |  |  |  | 37.8 µM (inactive) | > 100 µM (inactive) | 
Cc1cc(Cl)ccc1NC1=NC(=O)C(CC(=O)Nc2cccc(Cl)c2)S1 (stereo not drawn) | 43.9 µM (inactive) | > 100 µM (inactive) | 26.5 µM (inactive) |  |  |  | 28.4 µM (inactive) | 29.8 µM (inactive) | 
O=C1C(Cl)=C(c2ccc([N+](=O)[O-])cc2)C(=O)c2c(O)cccc21 | 1.57 µM (inactive) | 1.83 µM (inactive) |  | 1.03 µM (active) | 2.37 µM (inactive) | 2.05 µM (inactive) | 0.395 µM (active) | 4.06 µM (inactive) | 
CC(=O)Nc1ccccc1-c1cnc2ccccc2n1 | > 100 µM (inactive) | > 100 µM (inactive) | > 100 µM (inactive) |  |  |  | 29.6 µM (inactive) |  | 
Cc1nc(-c2cccnc2)sc1C(=O)CC(=O)C(=O)Nc1cccc(NC(=O)C(=O)CC(=O)c2sc(-c3cccnc3)nc2C)n1 |  |  |  | > 100 µM (inactive) | > 100 µM (inactive) | > 100 µM (inactive) |  |  | 
Cc1ccc(NC(=O)CC(=O)N2N=C(c3ccccc3)C(/N=N/c3ccc(S(=O)(=O)CCOS(=O)(=O)O)cc3)C2=O)cc1 (stereo not drawn) |  |  |  | > 100 µM (inactive) |  | > 100 µM (inactive) |  |  | 
COC(=O)c1c(O)ccc2c1c1c(n2Cc2cccc(C)c2)C(=O)c2ccccc2C1 |  |  |  | 13.6 µM (inactive) | 0.348 µM (active) | 11.4 µM (inactive) |  |  | 
CCCn1cc2c(O)nc(SC)nc2n1 |  | 32.3 µM (inactive) |  |  |  |  | 45.3 µM (inactive) | > 100 µM (inactive) | 
CC1(C)C(=O)c2ccccc2OC1N1CCN(C2Oc3ccccc3C(=O)C2(C)C)CC1 (stereo not drawn) |  |  |  | 94.6 µM (inactive) | 83.4 µM (inactive) | > 100 µM (inactive) |  |  | 
c1ccc(/N=C2\S/C(=N\C3CCCCC3)N(C3CCCCC3)\C2=N/c2ccccc2)cc1 |  |  |  | > 100 µM (inactive) | > 100 µM (inactive) | > 100 µM (inactive) |  |  | 
Cc1cccc2nc3c(C(=O)NCCN(C)C)cccc3cc12 | 1.52 µM (inactive) | 2.62 µM (inactive) | 1.41 µM (inactive) |  |  |  | 1.58 µM (inactive) | 0.929 µM (active) | 
CC1OC2=N[C@@H]1C(=O)N[C@@H](Cc1ccccc1)C1=N[C@H](C(=O)N[C@@H](Cc3ccccc3)C3=N[C@H](C(=O)N[C@H]2Cc2ccccc2)C(C)O3)C(C)O1 (stereo partly drawn) |  |  |  | 33 µM (inactive) | 31.1 µM (inactive) | 28 µM (inactive) |  |  | 
CC1(C)COC(/C=C/C2=NC(C)(C)CO2)=N1 |  |  |  | 19.7 µM (inactive) | 8.75 µM (inactive) | 23.7 µM (inactive) |  |  | 
Cn1c(=O)c2nc(N3CCOCC3)cnc2n(C)c1=O | > 100 µM (inactive) | > 100 µM (inactive) | > 100 µM (inactive) |  |  |  | > 100 µM (inactive) | > 100 µM (inactive) | 
C=CCN(N=O)C(=O)N(CCC)CCCCC(NC(C)=O)C(=O)NCc1ccccc1 (stereo not drawn) | 56 µM (inactive) |  | 91.6 µM (inactive) |  |  |  | > 100 µM (inactive) | > 100 µM (inactive) | > 100 µM (inactive)
Nc1nc(N)c2c(n1)NC(=O)c1c(c3ccccc3n1Cc1ccc(Cl)cc1)C2 |  |  |  |  | 16.8 µM (inactive) | 18.8 µM (inactive) |  |  | 
